Assay results taken from ChEMBL document CHEMBL5346882 (Eur J Med Chem, 2023).

Assays:
Cholinesterase [1] = biological target: Cholinesterase (Equus caballus, UniProt P81908)
Description: Inhibition of horse serum BuChE using butyrylthiocholine iodide as substrate preincubated for 5 mins followed by substrate addition and measured after 5 mins by DTNB-reagent based Ellman's method

Cholinesterase [2] = biological target: T1, Cholinesterase (Homo sapiens, UniProt P06276)
Description: Inhibition of human recombinant BuChE using butyrylthiocholine iodide as substrate preincubated for 5 mins followed by substrate addition and measured after 5 mins by DTNB-reagent based Ellman's method

Cytochrome P450 2D6 = Cytochrome P450 2D6 (Homo sapiens, UniProt P10635); assay: Inhibition of CYP2D6 (unknown origin) at 10 uM; type: ADME
Cytochrome P450 3A4 = Cytochrome P450 3A4 (Homo sapiens, UniProt P08684); assay: Inhibition of CYP3A4 (unknown origin) at 10 uM; type: ADME
[3] = Drug metabolism in human liver microsomes assessed as N-dealkylation mediated metabolite formation; type: ADME, Microsome
[4] = Metabolic stability in human liver microsomes assessed as parent compound remaining incubated for 120 mins in presence of NADPH regeneration system by UPLC/MS analysis; type: ADME, Microsome; conditions: read-out: Stability
[5] = Drug metabolism in human liver microsomes assessed as oxidation mediated metabolite formation; type: ADME, Microsome
[6] = Drug metabolism in human liver microsomes assessed as hydroxylation mediated metabolite formation; type: ADME, Microsome
[7] = biological target: Cholinesterase (Equus caballus) (UniProt P81908); assay: Inhibition of horse serum BuChE using butyrylthiocholine iodide as substrate at 10 uM preincubated for 5 mins followed by substrate addition and measured after 5 mins by DTNB-reagent based Ellman's method relative to control; type: cell-free; conditions: time 10.0 min
Cholinesterase [8] = biological target: T1, Cholinesterase; assay: Inhibition of human recombinant BuChE using butyrylthiocholine iodide as substrate at 1 uM preincubated for 5 mins followed by substrate addition and measured after 5 mins by DTNB-reagent based Ellman's method relative to control; conditions: time 10.0 min
GABA transporter 4 = biological target: T2, GABA transporter 4 (Mus musculus, UniProt P31650); assay: Inhibition of mouse GAT4 expressed in HEK293 cells assessed as reduction in [3H]-GABA uptake incubated for 10 mins; type: cell-based
T2 sequence (P31650 whole entry): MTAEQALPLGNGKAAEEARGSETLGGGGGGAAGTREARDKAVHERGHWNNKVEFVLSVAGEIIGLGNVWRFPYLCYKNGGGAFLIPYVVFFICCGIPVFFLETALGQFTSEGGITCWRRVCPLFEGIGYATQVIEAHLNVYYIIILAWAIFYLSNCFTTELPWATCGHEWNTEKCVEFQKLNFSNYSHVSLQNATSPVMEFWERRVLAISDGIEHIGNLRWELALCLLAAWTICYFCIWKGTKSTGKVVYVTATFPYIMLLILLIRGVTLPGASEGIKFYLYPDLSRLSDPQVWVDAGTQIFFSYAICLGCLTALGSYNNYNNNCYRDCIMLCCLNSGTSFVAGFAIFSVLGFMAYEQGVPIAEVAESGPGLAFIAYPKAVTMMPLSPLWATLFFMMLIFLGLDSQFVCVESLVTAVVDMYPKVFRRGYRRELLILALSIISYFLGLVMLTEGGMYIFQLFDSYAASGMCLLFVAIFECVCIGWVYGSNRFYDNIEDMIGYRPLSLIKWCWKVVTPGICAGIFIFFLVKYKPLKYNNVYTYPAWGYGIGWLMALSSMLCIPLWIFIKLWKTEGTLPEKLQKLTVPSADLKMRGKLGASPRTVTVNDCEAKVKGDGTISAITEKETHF

[9] = biological target: Sodium- and chloride-dependent GABA transporter 1 (Mus musculus, UniProt P31648); assay: Inhibition of mouse GAT1 expressed in HEK293 cells assessed as reduction in [3H]-GABA uptake incubated for 10 mins; type: cell-based
cells [10] = conditions: Mus musculus, HEK293
Description: Inhibition of mouse GAT2 expressed in HEK293 cells assessed as reduction in [3H]-GABA uptake incubated for 10 mins

cells [11] = conditions: Mus musculus, HEK293; remark: listed apart in the source
Description: Inhibition of mouse GAT3 expressed in HEK293 cells assessed as reduction in [3H]-GABA uptake incubated for 10 mins

hERG (KCNH2) = hERG (KCNH2) (Homo sapiens, UniProt Q12809); assay: Inhibition of human ERG at 10 uM relative to control; type: toxicity
[12] = biological target: ATP-dependent translocase ABCB1 (Homo sapiens, UniProt P08183); assay: Substrate activity at P-gp membranes (unknown origin) at 100 uM incubated for 40 mins by luminescent glo assay relative to control; type: ADME, cell membranes, Membrane
in vitro = conditions: human, HepG2 cells
Description: Hepatotoxicity in human HepG2 cells assessed as reduction in cell viability incubated for 72 hrs by MTS assay

[13] = Toxicity in Albino Swiss CD-1 mouse model of scopolamine induced memory deficit assessed as sedation at 30 mg/kg, ip pretreated for 30 mins followed by scopolamine administration and measured after 30 mins; type: organism-based; conditions: in vivo, 1 h, time 60 min
[14] = Toxicity in Albino Swiss CD-1 mouse model of scopolamine induced memory deficit assessed as motor deficit at 30 mg/kg, ip pretreated for 30 mins followed by scopolamine administration and measured after 30 mins; type: organism-based; conditions: in vivo, 1 h, time 60 min

Sequence of Cholinesterase (Equus caballus, UniProt P81908) (P81908 whole entry): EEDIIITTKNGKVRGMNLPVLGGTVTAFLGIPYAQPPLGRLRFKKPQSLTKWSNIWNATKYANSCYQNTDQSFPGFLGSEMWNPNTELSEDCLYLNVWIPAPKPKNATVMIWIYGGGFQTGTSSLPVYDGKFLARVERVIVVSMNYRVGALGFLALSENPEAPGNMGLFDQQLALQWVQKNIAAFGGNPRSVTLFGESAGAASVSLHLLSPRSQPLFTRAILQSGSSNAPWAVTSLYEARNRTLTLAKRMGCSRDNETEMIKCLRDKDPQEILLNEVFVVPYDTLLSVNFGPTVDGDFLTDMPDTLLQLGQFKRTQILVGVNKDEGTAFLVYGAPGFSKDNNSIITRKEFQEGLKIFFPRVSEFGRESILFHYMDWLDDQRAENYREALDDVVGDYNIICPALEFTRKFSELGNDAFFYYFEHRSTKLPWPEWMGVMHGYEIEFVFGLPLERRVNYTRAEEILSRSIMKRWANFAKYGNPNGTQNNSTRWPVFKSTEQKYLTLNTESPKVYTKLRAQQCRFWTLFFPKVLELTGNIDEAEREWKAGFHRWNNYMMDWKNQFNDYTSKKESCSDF
Sequence of Cholinesterase (Equus caballus) (P81908 whole entry): as above
T1 sequence (P06276 whole entry): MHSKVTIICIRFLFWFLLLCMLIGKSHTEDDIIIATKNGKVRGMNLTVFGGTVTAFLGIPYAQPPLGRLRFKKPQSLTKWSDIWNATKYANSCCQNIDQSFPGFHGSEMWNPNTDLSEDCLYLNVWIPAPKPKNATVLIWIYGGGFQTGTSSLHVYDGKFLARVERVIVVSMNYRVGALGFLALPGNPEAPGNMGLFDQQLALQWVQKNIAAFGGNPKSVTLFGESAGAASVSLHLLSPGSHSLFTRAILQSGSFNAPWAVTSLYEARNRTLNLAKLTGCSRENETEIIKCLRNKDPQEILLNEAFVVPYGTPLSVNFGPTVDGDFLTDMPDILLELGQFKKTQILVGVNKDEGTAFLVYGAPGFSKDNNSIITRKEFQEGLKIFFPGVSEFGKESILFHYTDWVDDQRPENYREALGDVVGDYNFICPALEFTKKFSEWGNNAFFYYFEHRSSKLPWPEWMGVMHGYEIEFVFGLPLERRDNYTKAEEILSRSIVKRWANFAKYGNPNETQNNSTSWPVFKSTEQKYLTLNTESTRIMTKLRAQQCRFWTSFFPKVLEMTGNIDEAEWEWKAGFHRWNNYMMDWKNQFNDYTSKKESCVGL
Sequence of Cytochrome P450 3A4 (P08684 whole entry): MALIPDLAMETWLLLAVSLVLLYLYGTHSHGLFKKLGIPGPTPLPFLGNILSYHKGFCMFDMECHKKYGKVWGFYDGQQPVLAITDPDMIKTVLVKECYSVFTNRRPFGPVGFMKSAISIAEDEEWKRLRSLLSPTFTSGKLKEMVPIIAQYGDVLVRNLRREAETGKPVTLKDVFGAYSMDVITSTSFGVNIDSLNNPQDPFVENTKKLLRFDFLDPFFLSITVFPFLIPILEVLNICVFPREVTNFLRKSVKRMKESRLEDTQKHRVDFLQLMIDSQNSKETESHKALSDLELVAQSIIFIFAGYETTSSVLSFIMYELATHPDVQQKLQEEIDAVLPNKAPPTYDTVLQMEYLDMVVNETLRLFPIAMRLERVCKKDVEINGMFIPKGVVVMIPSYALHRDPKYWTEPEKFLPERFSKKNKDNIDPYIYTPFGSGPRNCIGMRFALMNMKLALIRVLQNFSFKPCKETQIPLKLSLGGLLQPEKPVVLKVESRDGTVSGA
Sequence of Cytochrome P450 2D6 (P10635 whole entry): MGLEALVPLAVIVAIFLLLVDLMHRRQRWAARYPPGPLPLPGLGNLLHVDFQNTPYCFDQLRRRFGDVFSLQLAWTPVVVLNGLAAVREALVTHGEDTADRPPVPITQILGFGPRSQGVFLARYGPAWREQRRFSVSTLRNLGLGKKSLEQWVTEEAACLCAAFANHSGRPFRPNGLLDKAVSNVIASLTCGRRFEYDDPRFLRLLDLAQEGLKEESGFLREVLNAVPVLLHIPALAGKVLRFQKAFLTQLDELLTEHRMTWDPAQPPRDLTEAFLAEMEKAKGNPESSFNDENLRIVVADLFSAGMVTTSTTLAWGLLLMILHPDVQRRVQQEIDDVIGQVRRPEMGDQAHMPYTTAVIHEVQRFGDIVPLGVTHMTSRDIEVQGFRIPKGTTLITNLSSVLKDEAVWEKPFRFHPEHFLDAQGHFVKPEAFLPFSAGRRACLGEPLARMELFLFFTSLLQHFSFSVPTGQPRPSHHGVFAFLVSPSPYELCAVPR
Sequence of hERG (KCNH2) (Q12809 whole entry): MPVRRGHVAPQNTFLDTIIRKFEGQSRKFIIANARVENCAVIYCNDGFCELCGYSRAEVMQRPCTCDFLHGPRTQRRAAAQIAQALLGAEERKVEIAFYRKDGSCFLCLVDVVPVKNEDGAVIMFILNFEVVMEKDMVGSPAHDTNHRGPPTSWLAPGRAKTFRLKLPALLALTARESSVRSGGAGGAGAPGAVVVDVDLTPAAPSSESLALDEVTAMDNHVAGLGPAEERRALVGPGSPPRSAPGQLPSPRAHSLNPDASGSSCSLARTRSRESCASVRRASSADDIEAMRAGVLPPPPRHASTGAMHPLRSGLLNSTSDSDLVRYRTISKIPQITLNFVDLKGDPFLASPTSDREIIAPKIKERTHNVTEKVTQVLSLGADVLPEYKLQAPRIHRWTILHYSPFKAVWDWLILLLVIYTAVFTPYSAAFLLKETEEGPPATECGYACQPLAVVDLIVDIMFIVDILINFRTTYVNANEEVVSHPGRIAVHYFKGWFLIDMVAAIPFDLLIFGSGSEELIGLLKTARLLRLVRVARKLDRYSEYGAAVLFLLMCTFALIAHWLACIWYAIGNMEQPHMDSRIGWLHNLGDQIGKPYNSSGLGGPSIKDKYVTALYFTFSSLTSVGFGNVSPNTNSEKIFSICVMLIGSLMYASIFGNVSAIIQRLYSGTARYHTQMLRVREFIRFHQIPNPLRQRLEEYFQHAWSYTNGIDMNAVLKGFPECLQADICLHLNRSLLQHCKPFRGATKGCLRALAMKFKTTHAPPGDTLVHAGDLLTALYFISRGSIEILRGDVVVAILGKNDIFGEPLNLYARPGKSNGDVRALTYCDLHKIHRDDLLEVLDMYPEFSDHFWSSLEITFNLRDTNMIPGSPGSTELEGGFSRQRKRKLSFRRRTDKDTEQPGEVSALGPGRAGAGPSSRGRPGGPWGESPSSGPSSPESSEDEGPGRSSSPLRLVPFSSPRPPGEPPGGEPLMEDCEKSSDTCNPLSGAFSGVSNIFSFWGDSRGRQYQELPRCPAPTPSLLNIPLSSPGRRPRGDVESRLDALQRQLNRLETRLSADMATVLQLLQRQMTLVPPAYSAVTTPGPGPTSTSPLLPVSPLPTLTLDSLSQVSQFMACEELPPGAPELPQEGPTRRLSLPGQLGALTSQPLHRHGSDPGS

## COc1cccc(CNCC(O)CNC(=O)CC(c2ccccc2)c2ccccc2)c1 (racemic)
Cholinesterase [1]
  IC50: 660 nM
Cholinesterase [2]
  IC50: 250 nM

## CC(C)c1cccc(CNCC(O)CNC(=O)CC(c2ccccc2)c2ccccc2)c1 (racemic)
Cholinesterase [1]
  IC50: 630 nM
Cholinesterase [2]
  IC50: 260 nM

## O=C(NCC(O)CNCC1CCCCC1)C(c1ccccc1)c1ccccc1 (stereo not drawn)
Cytochrome P450 2D6
  inhibition (INH): Active
Cytochrome P450 3A4
  inhibition (INH): Active
[3]
  Drug metabolism: Metabolite_Detected
[4]
  remaining at 2 h: > 80%

## O=C(CC(c1ccccc1)c1ccccc1)NCC(O)CNCc1ccccc1 (racemic)
Cholinesterase [1]
  IC50: 610 nM
[5]
  Drug metabolism: Metabolite_Detected
Cytochrome P450 2D6
  inhibition (INH): Active
Cholinesterase [2]
  IC50: 280 nM
Cytochrome P450 3A4
  inhibition (INH): Active
[3]
  Drug metabolism: Metabolite_Detected
[6]
  Drug metabolism: Metabolite_Detected
[4]
  remaining at 2 h: 66%

## CC(C)(NCC(O)CNC(=O)CC(c1ccccc1)c1ccccc1)c1ccccc1 (racemic)
[7]
  inhibition: 44%
Cholinesterase [8]
  inhibition: < 20%

## CC(C)(C)c1cccc(CNCC(O)CNC(=O)C(c2ccccc2)c2ccccc2)c1 (racemic)
Cholinesterase [1]
  IC50: 260 nM
GABA transporter 4
  IC50: > 10000 nM
Cholinesterase [2]
  IC50: 100 nM
[9]
  IC50: > 10000 nM
Cells [10]
  IC50: > 10000 nM
Cells [11]
  IC50: > 10000 nM

## CC(C)(NCC(O)CNC(=O)C(c1ccccc1)c1ccccc1)c1ccccc1 (racemic)
[7]
  inhibition: 42%
Cholinesterase [8]
  inhibition: < 20%

## CC(C)(C)c1cccc(CNCC(O)CNC(=O)CC(c2ccccc2)c2ccccc2)c1 (racemic)
Cholinesterase [1]
  IC50: 320 nM
GABA transporter 4
  IC50: > 10000 nM
Cholinesterase [2]
  IC50: 180 nM
[9]
  IC50: > 10000 nM
Cells [10]
  IC50: > 10000 nM
Cells [11]
  IC50: > 10000 nM

## C[C@H](NCC(O)CNC(=O)CC(c1ccccc1)c1ccccc1)c1ccccc1 (mixture of isomers)
Cholinesterase [1]
  IC50: 4770 nM
Cholinesterase [8]
  inhibition: 34%

## O=C(CC(c1ccccc1)c1ccccc1)NC[C@@H](O)CNCC1CCCCC1
hERG (KCNH2)
  inhibition at 10 µM: < 50%
[12]
  Activity: <= 190%
Cytochrome P450 2D6
  inhibition (INH): Active
Cytochrome P450 3A4
  inhibition (INH): Active
In vitro
  CC50 at 72 h: 3210 nM

## O=C(CC(c1ccccc1)c1ccccc1)NC[C@H](O)CNCC1CCCCC1
hERG (KCNH2)
  inhibition at 10 µM: < 50%
[12]
  Activity: <= 190%
[13]
  Activity: Toxic
Cytochrome P450 2D6
  inhibition (INH): Active
[14]
  Activity: Toxic
Cytochrome P450 3A4
  inhibition (INH): Active
In vitro
  CC50 at 72 h: 2850 nM

## C[C@H](NCC(O)CNC(=O)C(c1ccccc1)c1ccccc1)c1ccccc1 (mixture of isomers)
Cholinesterase [1]
  IC50: 4540 nM
Cholinesterase [8]
  inhibition: < 20%

## CC(C)(C)c1ccc(CNCC(O)CNC(=O)C(c2ccccc2)c2ccccc2)cc1 (racemic)
Cholinesterase [1]
  IC50: 1120 nM
Cholinesterase [2]
  IC50: 300 nM

## O=C(NC[C@@H](O)CNCC1CCCCC1)C(c1ccccc1)c1ccccc1
Cytochrome P450 2D6
  inhibition (INH): Active
Cytochrome P450 3A4
  inhibition (INH): Active
In vitro
  CC50 at 72 h: 25800 nM

## O=C(NC[C@H](O)CNCC1CCCCC1)C(c1ccccc1)c1ccccc1
Cytochrome P450 2D6
  inhibition (INH): Active
Cytochrome P450 3A4
  inhibition (INH): Active
In vitro
  CC50 at 72 h: 18700 nM

## CC(C)(C)c1ccc(CNCC(O)CNC(=O)CC(c2ccccc2)c2ccccc2)cc1 (racemic)
Cholinesterase [1]
  IC50: 1940 nM
Cholinesterase [2]
  IC50: 160 nM

## O=C(CC(c1ccccc1)c1ccccc1)NCC(O)CNCC1CC1 (racemic)
Cholinesterase [1]
  IC50: 3580 nM
GABA transporter 4
  IC50: > 10000 nM
Cholinesterase [8]
  inhibition: 46%
[9]
  IC50: > 10000 nM
Cells [10]
  IC50: > 10000 nM
Cells [11]
  IC50: > 10000 nM

## O=C(NCC(O)CNCc1cccc(C(F)(F)F)c1)C(c1ccccc1)c1ccccc1 (racemic)
Cholinesterase [1]
  IC50: 960 nM
Cholinesterase [2]
  IC50: 700 nM

## O=C(CC(c1ccccc1)c1ccccc1)NCC(O)CNCc1cccc(C(F)(F)F)c1 (racemic)
Cholinesterase [1]
  IC50: 1730 nM
Cholinesterase [2]
  IC50: 410 nM

## O=C(NCC(O)CNCc1ccccc1)C(c1ccccc1)c1ccccc1 (racemic)
Cholinesterase [1]
  IC50: 2540 nM
GABA transporter 4
  IC50: > 10000 nM
Cholinesterase [8]
  inhibition: < 20%
[9]
  IC50: > 10000 nM
Cells [10]
  IC50: > 10000 nM
Cells [11]
  IC50: > 10000 nM

## COc1cccc(CNCC(O)CNC(=O)C(c2ccccc2)c2ccccc2)c1 (racemic)
Cholinesterase [1]
  IC50: 2180 nM
Cholinesterase [8]
  inhibition: 70%

## O=C(NCC(O)CNCC1CC1)C(c1ccccc1)c1ccccc1 (racemic)
[7]
  inhibition: 47%
Cholinesterase [8]
  inhibition: < 20%
